The values below come from patent US10117854B2, “Method for treating hepatic encephalopathy” (MEDDAY PHARMACEUTICALS, priority 2016, dated 2018).

Where two headings read alike, the source gives them in different places.

For series [1] the following is noted: in vivo; cited from earlier work.
The subject of series [2] is BDL rats. As to the kind of experiment: Open Field Test (behavioral test of hepatic encephalopathy). The series is classed as in vivo, rat. The conditions noted are these: for OpenField test results compared with high-dose biotin: data not shown. On the procedure:
Bile duct ligation (BDL) was used as a biliary cirrhosis model. All rats oh this group were operated on. They were randomly separated in two groups: BDL or simple laparotomy (SHAM, control-group). The BDL procedure was conducted as described previously (Kountouras J, Prolonged bile duct obstruction: a new experimental model for cirrhosis in the rat; Br J Exp Pathol 1984) and as controlled in our lab. Surgery was done under total anesthesia with […] isofluran (Aerrane, Baxter Maurepas) 3% mixed with air. Analgesia was done by sub-cutaneous injection of buprenorphin 2% (Buprécare 0.3 mg/ml, Axience) immediately before and after surgery. Rifaximin (Sigma Aldrich) was mixed with water at the dose of 50 mg/kg/d and began 3 days after the surgery. […] To assess the hepatic encephalopathy, the Open Field Test (BioSeb) was used, a behavioral test validated in BDL rats to explore neurological impairments (Leke, Plos One 2012; 7(5)). The test was done the day of sacrifice, in standardized experimental conditions (hour, place, light, noise). Each rat was placed in a square 1 m^2 box and was free to explore the arena during 6 minutes. Two areas were defined in the square, center and periphery. Mobility parameters were registered by a three-dimensional camera. The data analyzed after 6 minutes of experiments were: total distance travelled (cm), time of mobility (s), speed (cm/s), number of zone changes, distance travelled in the center and periphery zone, time spent in the center and periphery zone, number of rearing, total duration of rearing.

Series [3] deals with BDL rats. The protocol: The integrity of BBB was investigated by measuring the extravasation from intra-vascular compartment of dextran-Texas Red (Life Technologies) conjugated.
Six weeks after the surgery, all rats were anesthetized with inhaleted isofluran 3%. 0.75 ml of fluorochrome was injected in the femoral vein (Texas Red 10 kDa 10 mg/ml) and circulated during 6 minutes. […] To remove the intravascular localized dye, we did a large thoracotomy to perfuse 300 ml of cold PBS (40 ml/min with a peristaltic pump) through the left cardiac ventricle.
After decapitation, the brain was rapidly removed and the olfactory bulbs and brain stem eliminated with the cerebellum.
After grinding the right hemisphere by vigorously shaking and centrifugation, the amount of fluorescent dextran (μg/g) in supernatants was measured by fluorimetry (Tecan Infinite M200) at 620 nm upon excitation at 588 nm. The content of dye was valued by interpolation in standard curve.

For a further series, the system named is IFNγ. As to the kind of experiment: Plasmatic cytokines by multiplex kit. Format: in vivo, rat. The conditions noted are these: BDL rats treated with biotin (300 mg/kg food). On the procedure: (§1) The blood sample taken during the sacrifice was centrifuged and the plasma was used to determine the levels of hepatic transaminases, total and conjugated bilirubin and ammonia. Plasmatic cytokines (IL6, TNFa, IFNg) were determined by a multiplex commercial kit.

For series [4], the system named is rats, acute liver failure induced by single high dose of CCl4. The conditions noted are these: prior art; biotin 0.5 mg/kg BW single intraperitoneal injection, or oral with uncontrolled amount; cited from earlier work.
The subject of series [5] is BDL rats. As to the kind of experiment: Blood ammoniemia in bile duct ligated rats. The series is classed as in vivo, rat. The conditions noted are these: biotin 300 mg/kg of food (30 mg/kg BW/day), ANOVA p=0.01, FIG. 6. The protocol:
Adult male Wistar rats (weight 175-200 g at the initiation of the surgical procedure) were obtained from the Janvier labs (Le Gesnest-Saint-Isle) and were used for the whole experiments.
Bile duct ligation (BDL) was used as a biliary cirrhosis model. All rats oh this group were operated on. They were randomly separated in two groups: BDL or simple laparotomy (SHAM, control-group). The BDL procedure was conducted as described previously (Kountouras J, Prolonged bile duct obstruction: a new experimental model for cirrhosis in the rat; Br J Exp Pathol 1984) and as controlled in our lab. Surgery was done under total anesthesia with inhalated isofluran (Aerrane, Baxter Maurepas) 3% mixed with air. Analgesia was done by sub-cutaneous injection of buprenorphin 2% (Buprécare 0.3 mg/ml, Axience) immediately before and after surgery.
as §1

Take `O=C(O)CCCC[C@@H]1SC[C@@H]2NC(=O)N[C@@H]21` [biotin]: in series [1], the plasma half life entry is recorded as “about 2 hours”. In addition, the “neurological impairements observed in the OpenField test” value with BDL rats [2] (biotin 50 mg/kg of food (5 mg/kg of animal/day)) is “not high enough to have an effect”; in the series with BDL rats [2] (biotin 300 mg/kg of food (30 mg/kg of animal/day), vs BDL rats without biotin), “reduced”; in the series on BDL rats [2] (biotin 300 mg/kg of food (30 mg/kg of animal/day), vs BDL rats without biotin, listed as Biotin), “comportmental improvement”. The “intra-cerebral quantity of dextran (BBB permeability)” value is on record as “normalize” in the series with BDL rats [3] (BDL rats, biotin 300 mg/kg of food, vs BDL rats on control diet); “normalization of BBB permeability” with BDL rats [3] (BDL rats, biotin 300 mg/kg of food, vs BDL rats on control diet, listed as Biotin); “did not reach normalization” in the series with BDL rats [3] (biotin 50 mg/kg of food). Moreover, the “IFNγ levels in plasma” value in the series with IFNγ is given as “decreased”. Further, in series [4], the serum ammonium level result is on record as “decrease the serum ammonium level”. Further, in the series on BDL rats [5], the “hyperammonemia (blood ammoniemia)” value is on record as “reduce hyperammonemia”.
Consider `O=C([O-])c1ccccc1.[Na+]` [sodium benzoate, Sodium benzoate], for which the “OpenField test results compared with high-dose biotin” value in the series with BDL rats [2] (sodium benzoate 200 mg/kg/d in water) was “similar”.
Take `CO[C@H]1/C=C/O[C@@]2(C)Oc3c(C)c(O)c4c(O)c(c5c(nc6cc(C)ccn65)c4c3C2=O)NC(=O)/C(C)=C\C=C\[C@H](C)[C@H](O)[C@@H](C)[C@@H](O)[C@@H](C)[C@H](OC(C)=O)[C@@H]1C` [rifaximin, Rifaximin]: the “OpenField test results compared with high-dose biotin” value with BDL rats [2] (rifaximin 50 mg/kg/d in water) is “similar”.
